Assays:
[1] = test system: patients with steroid-resistant UC; assay: Mayo score, phase-2a clinical trial; assay type: in vivo, Japanese patients; details: mean ± SD
Excerpt: (§1) Patients had to meet all criteria, namely, a Mayo score of 6 or more, a rectal bleeding subscore of at least 1, and Mayo endoscopy subscore (MES) of at least 2, at entry. Main exclusion criteria were as follows: patients with fulminant UC, patients with precancerous lesion in the colon, medication history of biologics within the last 3 months, patients with malignancy or any history of malignancy, and patients with active infection. We excluded patients with a systolic blood pressure under 90 mmHg and a pulse rate under 45 bpm for safety reasons due to the vasodilatory effect of AM. All patients provided written informed consent for all study-related procedures and were requested to be hospitalized for 2 weeks.
(§2) Patients were enrolled after confirmation of steroid-resistance defined as at least daily treatment with 30 mg or more of prednisolone. Screening tests including measurements of vital signs, blood and urine examinations, as well as a 12-lead electrocardiography (ECG), were conducted within 2 weeks prior to administration. Demographic data and disease characteristics including endoscopic disease activity of patients were also collected before randomization. Endoscopic subscores were assessed by on-site investigators and were not subjected to central review. Clinical disease activity was assessed by expert doctors according to the Mayo score and Lichtiger index. Stool samples were collected before administration of the investigational drug and after 2 weeks of treatment initiation. Measurements of fecal calprotectin and […] (FITs) were performed by a commercially available laboratory testing service (BML, Tokyo, Japan) in compliance with GCP. Additionally, measurements of complement components including CH50, C1q, C3, and C4 and evaluation of the absolute number of hematopoietic stem cells in the peripheral blood were performed before and after 2, 4, and 8 weeks by other laboratory testing services (SRL medisearch, Tokyo, Japan and LSI medience, Tokyo, Japan, respectively). The absolute number of hematopoietic stem cells in the peripheral blood was measured as CD34-positive cells using CD45FITC/CD34PE, 7AAD kit (Becton Dickinson Immunocytometry System, USA) and flow cytometry.
(§3) After hospitalization, patients received a continuous infusion of the assigned drug for 8 h per day for a total of 14 days. After the final administration of the investigational drug, patients were subjected to safety examinations and then discharged. But, if necessary due to disease activity, continuous hospitalization was allowed. Patients were requested to make an office visit at 4 and 8 weeks. Evaluations of their Mayo scores including endoscopic examinations were done at 2 and 8 weeks, whereas evaluation of the Lichtiger index was done at 2, 4, and 8 weeks. The dose of concomitant steroid was maintained for 2 weeks after drug administration, and then, a reduction in the steroid dose was allowed depending on the disease condition. Changes to the doses of other drugs, such as aminosalicylic acid, were prohibited throughout the trial.
(§4) All data were collected at each institute from March 2017 to April 2019. The primary endpoint was the change in the Mayo scores at 2 weeks. Secondary endpoints included the change in the Mayo scores at 8 weeks and the rate of clinical remission at 2 and 8 weeks, defined as a Mayo score 0; the response rate of the Mayo scores at 2 and 8 weeks, defined as an improvement of a 3-point or more decrease or at least a 30% decrease from baseline; the changes in MES at 2 and 8 weeks; the changes in the Lichtiger index at 2, 4, and 8 weeks; the changes in fecal calprotectin and FIT at 2 weeks; and finally, the changes in the given dose of steroid.
(§5) The significant level for each test was 5%. […] All data are shown as mean ± standard deviation (SD).

[2] = test system: patients with steroid-resistant UC; assay: Lichtiger index, phase-2a clinical trial; assay type: in vivo, Japanese patients; details: mean ± SD
Excerpt: as §1, §2, §3, §4, §5

[3] = test system: patients with steroid-resistant UC; assay: Mayo endoscopy subscore (MES), phase-2a clinical trial; assay type: in vivo, Japanese patients; details: mean ± SD
Excerpt: as §1, §2, §3, §4, §5

[4] = test system: patients with steroid-resistant UC; assay: Dose of concomitant steroid, phase-2a clinical trial; assay type: in vivo, Japanese patients; details: n = 3, mean ± SD, placebo 11.3 ± 6.4
Method: as §3, §4, §5

[5] = test system: patients with steroid-resistant UC; assay: Adverse events, safety assessment; details: patients with event (%); AM 5 ng/kg/min, n = 5; placebo 0
Method: Safety evaluations including the evaluation of adverse events (AEs) and serious adverse events (SAEs) were conducted throughout the study. Vital signs, blood and urine tests, and a 12-lead ECG were performed at specified times after administration, with monitoring of ECG being assessed from the beginning of every test drug administration until 2 h after the administration.
All data, except for the PK parameters, were collected using an electronic data collection system (Viedoc) and analyzed by Intellim (Tokyo, Japan), an independent CRO. […] The population included in the safety analysis were all patients who received at least 1 day of administration of the test drug. […] The significant level for each test was 5%. All analyses were performed using SAS version 9.3 (SAS Institute, Cary, NC, USA). […] All data are shown as mean ± standard deviation (SD).

## CC[C@H](C)[C@H](NC(=O)[C@H](CCC(N)=O)NC(=O)[C@H](Cc1c[nH]cn1)NC(=O)[C@H](C)NC(=O)[C@H](CC(C)C)NC(=O)[C@H](CCCCN)NC(=O)[C@H](CCC(N)=O)NC(=O)[C@@H](NC(=O)[C@@H](NC(=O)[C@@H]1CSSC[C@H](NC(=O)CNC(=O)[C@H](Cc2ccccc2)NC(=O)[C@H](CO)NC(=O)[C@H](CCCNC(=N)N)NC(=O)[C@H](CC(C)C)NC(=O)CNC(=O)[C@H](CCC(N)=O)NC(=O)[C@H](Cc2ccccc2)NC(=O)[C@H](CC(N)=O)NC(=O)[C@H](CC(N)=O)NC(=O)[C@H](CCSC)NC(=O)[C@H](CO)NC(=O)[C@H](CCC(N)=O)NC(=O)[C@H](CCCNC(=N)N)NC(=O)[C@@H](N)Cc2ccc(O)cc2)C(=O)N[C@@H](CCCNC(=N)N)C(=O)N[C@@H](Cc2ccccc2)C(=O)NCC(=O)N[C@@H]([C@@H](C)O)C(=O)N1)[C@@H](C)O)C(C)C)C(=O)N[C@@H](Cc1ccc(O)cc1)C(=O)N[C@@H](CCC(N)=O)C(=O)N[C@@H](Cc1ccccc1)C(=O)N[C@H](C(=O)N[C@@H](CC(=O)O)C(=O)N[C@@H](CCCCN)C(=O)N[C@@H](CC(=O)O)C(=O)N[C@@H](CCCCN)C(=O)N[C@@H](CC(=O)O)C(=O)N[C@@H](CC(N)=O)C(=O)N[C@H](C(=O)N[C@@H](C)C(=O)N1CCC[C@H]1C(=O)N[C@@H](CCCNC(=N)N)C(=O)N[C@@H](CO)C(=O)N[C@@H](CCCCN)C(=O)N[C@H](C(=O)N[C@@H](CO)C(=O)N1CCC[C@H]1C(=O)N[C@@H](CCC(N)=O)C(=O)NCC(=O)N[C@@H](Cc1ccc(O)cc1)C(N)=O)[C@@H](C)CC)C(C)C)[C@@H](C)O [Adrenomedullin]
[1]; AM 5 ng/kg/min infusion 8 h/day x 14 days, at 2 weeks, n = 4, baseline 9.5 ± 1.0, placebo 6.8 ± 3.6
  Mayo score: 5.0 ± 3.2
[1]; AM 5 ng/kg/min infusion 8 h/day x 14 days, at 8 weeks, n = 3, placebo 4.5 ± 3.5 (n = 2)
  Mayo score: 2.0 ± 1.7
[1]; AM 10 ng/kg/min infusion 8 h/day x 14 days, at 2 weeks, n = 5, baseline 8.8 ± 1.1, placebo 6.8 ± 3.6
  Mayo score: 7.2 ± 2.7
[1]; AM 10 ng/kg/min infusion 8 h/day x 14 days, at 8 weeks, n = 3, placebo 4.5 ± 3.5 (n = 2)
  Mayo score: 5.7 ± 2.5
[1]; AM 15 ng/kg/min infusion 8 h/day x 14 days, at 2 weeks, n = 6, baseline 9.8 ± 1.6, placebo 6.8 ± 3.6
  Mayo score: 7.0 ± 4.1
[1]; AM 15 ng/kg/min infusion 8 h/day x 14 days, at 8 weeks, n = 3, placebo 4.5 ± 3.5 (n = 2)
  Mayo score: 0.0 ± 0.0
[2]; AM 5 ng/kg/min infusion 8 h/day x 14 days, at 2 weeks, n = 4, baseline 10.8 ± 2.9, placebo 7.0 ± 5.8
  Lichitiger index: 5.5 ± 5.6
[2]; AM 5 ng/kg/min infusion 8 h/day x 14 days, at 4 weeks, n = 3, placebo 3.5 ± 3.7
  Lichitiger index: 2.0 ± 1.7
[2]; AM 5 ng/kg/min infusion 8 h/day x 14 days, at 8 weeks, n = 3, placebo 2.3 ± 4.0
  Lichitiger index: 1.3 ± 1.2
[2]; AM 10 ng/kg/min infusion 8 h/day x 14 days, at 2 weeks, n = 5, baseline 12.2 ± 0.4, placebo 7.0 ± 5.8
  Lichitiger index: 7.8 ± 3.8
[2]; AM 10 ng/kg/min infusion 8 h/day x 14 days, at 4 weeks, n = 3, placebo 3.5 ± 3.7
  Lichitiger index: 4.7 ± 4.7
[2]; AM 10 ng/kg/min infusion 8 h/day x 14 days, at 8 weeks, n = 3, placebo 2.3 ± 4.0
  Lichitiger index: 5.7 ± 4.5
[2]; AM 15 ng/kg/min infusion 8 h/day x 14 days, at 2 weeks, n = 6, baseline 12.0 ± 1.7, placebo 7.0 ± 5.8
  Lichitiger index: 6.5 ± 4.4
[2]; AM 15 ng/kg/min infusion 8 h/day x 14 days, at 4 weeks, n = 3, placebo 3.5 ± 3.7
  Lichitiger index: 1.3 ± 1.5
[2]; AM 15 ng/kg/min infusion 8 h/day x 14 days, at 8 weeks, n = 3, placebo 2.3 ± 4.0
  Lichitiger index: 0.3 ± 0.6
[3]; AM 5 ng/kg/min infusion 8 h/day x 14 days, 2 week, n = 4, baseline 2.3 ± 0.5, placebo 2.0 ± 0.6
  MES (Mayo endoscopic sub-score): 1.5 ± 0.6
[3]; AM 5 ng/kg/min infusion 8 h/day x 14 days, 2 week, n = 4, placebo -0.5 ± 0.8, P = 0.67 vs. placebo
  Change of MES: -0.8 ± 1.0
[3]; AM 5 ng/kg/min infusion 8 h/day x 14 days, 8 week, n = 3, placebo 2.0 ± 1.4 (n = 2)
  MES (Mayo endoscopic sub-score): 0.7 ± 0.6
[3]; AM 5 ng/kg/min infusion 8 h/day x 14 days, 8 week, n = 3, placebo -0.5 ± 2.1 (n = 2), P = 0.47 vs. placebo
  Change of MES: -1.7 ± 1.2
[3]; AM 10 ng/kg/min infusion 8 h/day x 14 days, 2 week, n = 5, baseline 2.2 ± 0.4, placebo 2.0 ± 0.6
  MES (Mayo endoscopic sub-score): 2.2 ± 0.8
[3]; AM 10 ng/kg/min infusion 8 h/day x 14 days, 2 week, n = 5, placebo -0.5 ± 0.8, P = 0.32 vs. placebo
  Change of MES: 0.0 ± 0.7
[3]; AM 10 ng/kg/min infusion 8 h/day x 14 days, 8 week, n = 3, placebo 2.0 ± 1.4 (n = 2)
  MES (Mayo endoscopic sub-score): 2.0 ± 0.0
[3]; AM 10 ng/kg/min infusion 8 h/day x 14 days, 8 week, n = 3, placebo -0.5 ± 2.1 (n = 2), P = 0.69 vs. placebo
  Change of MES: 0.0 ± 0.0
[3]; AM 15 ng/kg/min infusion 8 h/day x 14 days, 2 week, n = 6, baseline 2.5 ± 0.5, placebo 2.0 ± 0.6
  MES (Mayo endoscopic sub-score): 2.3 ± 1.0
[3]; AM 15 ng/kg/min infusion 8 h/day x 14 days, 2 week, n = 6, placebo -0.5 ± 0.8, P = 0.49 vs. placebo
  Change of MES: -0.2 ± 0.8
[3]; AM 15 ng/kg/min infusion 8 h/day x 14 days, 8 week, n = 3, placebo 2.0 ± 1.4 (n = 2)
  MES (Mayo endoscopic sub-score): 0.0 ± 0.0
[3]; AM 15 ng/kg/min infusion 8 h/day x 14 days, 8 week, n = 3, placebo -0.5 ± 2.1 (n = 2), P = 0.27 vs. placebo
  Change of MES: -2.0 ± 0.0
[4]; AM 5 ng/kg/min group
  dose of steroid at 8 weeks: 5.0 ± 8.7 mg
[4]; AM 10 ng/kg/min group
  dose of steroid at 8 weeks: 10.0 ± 10.0 mg
[4]; AM 15 ng/kg/min group
  dose of steroid at 8 weeks: 16.7 ± 12.6 mg
[5]
  Decrease of blood pressure (cardiovascular disorders): 0
  Flushing (cardiovascular disorders): 0
  Gastrointestinal disorders: 2 (40%)
  Head disconfort (nervous system disorders): 0
